Assay results as given in patent US10738054B2, “Synergistic compositions comprising (R)-dimiracetam (1) and (S)-dimiracetam (2) in a non-racemic ratio” (Metys Pharmaceuticals AG, priority 2017, dated 2020).
Several values for one entry are separate records, joined by “and”; a condition that tells them apart may be missing. Equal values may be shown once. Blank lines part the entries; values can stand above or below the molecule they belong to.

Experiments:
[1] = test system: NMDA plus glycine-evoked [3H]-D-aspartic acid release from rat spinal synaptosomes; test: Inhibition of NMDA+glycine-induced glutamate ([3H]-D-Asp) release from rat spinal synaptosomes (Example 2); type: biochemical; settings: for Percent inhibition of NMDA + glycine-induced glutamate release from rat spinal synaptosomes: mean ± S.E.M. of 3 to 6 experiments; for IC50: rat spinal synaptosomes, 10 μM NMDA plus 1 μM glycine, read-out: estimated IC50 for inhibition of NMDA plus glycine-evoked [3H]-D-aspartic acid release
Protocol: Rat spinal synaptosomes, free from glial contaminants, were prepared according to the method of Paluzzi S. et al., 2007, a modification of the method of Nakamura et al., 1993, as follows.
Sprague-Dawley rats aged between 90 to 130 days were used. Animals were housed at constant temperature (22±1° C.) and relative humidity (50%) under a regular light-dark schedule (lights 7.00 am-7.00 pm). Food and water were freely available.
Rats were sacrificed by decapitation and the whole spinal cord was rapidly removed and maintained at 4° C. Rat spinal cord was homogenized (90 rpm; 24 up-down strokes in 2 min) in 10 volumes (1 g tissue in 10 ml) of ice cold 0.32 M sucrose, buffered at pH 7.4 using a glass-teflon tissue grinder (clearance 0.25 mm). The homogenate was centrifuged (5 min, 1000 g at 4° C.) to remove nuclei and debris, and the supernatant was gently stratified at 0-4° C. on a discontinuous Percoll® (Sigma Aldrich, St Louis, Mo., USA) gradient (2, 6, 10 and 20% v/v in Tris-buffered sucrose) and centrifuged at 33,500 g for 5 min. The layer between 10 and 20% Percoll (i.e. the synaptosomal fraction) was collected and washed by centrifugation in physiological medium having the following composition (mM): NaCl, 140; KCl, 3; MgSO4 1.2; NaH2PO4, 1.2; NaHCO3 5; CaCl2 1.2; HEPES 10; glucose, 10; pH 7.4. Protein content was measured according to Bradford M M, 1976 using bovine serum albumin as a standard.
Synaptosomes (about 70 μg protein) were incubated at 37° C. for 15 min in 2.5 mL of 0.05 μM [^3H]-D-aspartate ([^3H]-D-Asp; Perkin Elmer Italia, Monza, Milano, Italy). Then, the suspension was diluted to 122.5 mL with physiological medium maintained at 37° C. and 5 mL aliquots of the synaptosomal suspension were layered on microporous filters placed at the bottom of a set of 24 parallel 25 mL superfusion chambers maintained at 37° C. (Superfusion system, Ugo Basile, Comerio, Varese, Italy). Superfusion was then started with physiological medium at a rate of 0.5 mL/min, and was continued for 46 min. Starting at t=37 min, nine consecutive 1-min filtrate samples were collected. NMDA (10 μM) and glycine (1 μM) were introduced at the end of the first sample collected and maintained until the end of the experiment.
The radioactivity contained in each filtrate sample was measured by scintillographic methods, using a Ultima Gold scintillation fluid (Perkin-Elmer Milan, Italy). Each whole 0.5 mL sample was counted for radioactivity by adding 3 mL of scintillation fluid.
Tritium content measured in each sample was expressed as fractional percent (i.e. percent content of each sample with respect to total [^3H] content at the onset of the respective collection period). Drug effects were evaluated by calculating the ratio between the effluxes in the seventh fraction collected (in which the maximum effect of NMDA was reached) and that of the first fraction (basal release, prior to application of NMDA+glycine). This ratio was compared to the same seventh- and first-fraction ratio obtained under control conditions.
The possible effects of racemic and non-racemic dimiracetam mixtures on NMDA plus glycine-induced neurotransmitter release from rat spinal cord synaptosomes were assessed.

[2] = test system: NMDA+glycine-induced [3H]-D-aspartate release in rat spinal cord synaptosomes; test: In vitro inhibition of pre-loaded [3H]-D-aspartate release induced by NMDA+glycine in rat spinal cord synaptosomes (Example 5); type: biochemical; settings: tested at 10 nM
Protocol: These experiments were performed following the previously published methodology (Fariello et al. Neuropharmacology. 2014, (81), 85-94) and the results are shown in FIG. 5.

[3] = test system: rats with oxaliplatin-induced mechanical hyperalgesia; test: Paw pressure test (Randall & Selitto) in oxaliplatin model; type: in vivo, rat; settings: oxaliplatin 2.4 mg/kg i.p.
Protocol: Paw mechanical sensitivity was determined using a Randall & Selitto apparatus (Randall and Selitto, 1957) exerting a force that increases at constant rate (32 g/s). The stimulus causing paw withdrawal was evaluated before and at different times after treatment. Results represent the mean of mechanical thresholds for paw withdrawal expressed as grams. To avoid possible damage to the rat paw the maximum applied force was set at 240 g. In the single administration protocol, paw pressure tests were performed before (pre-dose) and at regular intervals after treatment.
Peripheral sensory neuropathy was induced in adult rats, by administration of oxaliplatin (Tocris) at 2.4 mg/kg i.p. in saline once daily for 5 consecutive days every week for three weeks (cumulative dose 36 mg/kg) according to Cavaletti et al., 2001. Starting from day 21 after the first oxaliplatin administration, the effect of repeated oral administration of racemic dimiracetam or the preferred inventive composition with an enantiomeric excess of (R)-dimiracetam of 50% corresponding to a 3:1 (R):(S) ratio of the enantiomers on oxaliplatin-induced mechanical hyperalgesia was assessed.
After repeated oral administration of either racemic dimiracetam or the preferred inventive composition with an enantiomeric excess of (R)-dimiracetam of 50%, oxaliplatin-induced mechanical hyperalgesia was measured. Pain threshold was assessed by a Randall & Selitto analgesymeter before the morning administration. […] Development of tolerance was not observed.
(§1) After repeated oral administration of either racemic dimiracetam or the preferred inventive composition with an enantiomeric excess of (R)-dimiracetam of 50%, oxaliplatin-induced mechanical hyperalgesia was measured. Pain threshold was assessed by a Randall & Selitto analgesymeter (Leighton et al. Br. J. Pharmacol. 93:553-560, 1988) before the morning administration. In the morning of day 28, also mechanical allodynia (Sakurai et al. Pain 147:165-74, 2009) and cold sensitivity were assessed, using the von Frey and cold plate tests (Di Cesare Mannelli et al. Exp Neurol 261:22-33, 2014), respectively. […] Development of tolerance was not observed.
Paw mechanical sensitivity was determined using a Randall & Selitto apparatus exerting a force that increases at constant rate (32 g/s). The stimulus at which rats withdrew the paw was evaluated before and at different times after treatment. Results represent the mean of mechanical thresholds expressed as grams. To avoid any possible damage to the animal paw the maximum applied force was fixed at 240 g (Leighton et al. Br. J. Pharmacol. 93:553-560, 1988).

[4] = test system: rats with oxaliplatin-induced mechanical allodynia; test: Von Frey test in oxaliplatin model; type: in vivo, rat; settings: oxaliplatin 2.4 mg/kg i.p.
Protocol: as §1
The animals were placed in 20 cm×20 cm Plexiglas boxes equipped with a metallic mesh floor, 20 cm above the bench. Animals were allowed to habituate themselves to their environment for 15 min before the test. An electronic Von Frey hair unit (Ugo Basile, Varese, Italy) was used: the withdrawal threshold was evaluated by applying forces ranging from 0 to 50 g with a 0.2 g accuracy. […] The paw sensitivity threshold was defined as the minimum force required to elicit a robust and immediate withdrawal reflex of the paw. Voluntary movements associated with locomotion were not considered as a withdrawal response. Stimuli were applied to each posterior paw at 5 s intervals. Measurements were repeated 5 times and the final value was obtained by averaging the 5 measurements (Sakurai et al. Pain 147:165-74, 2009).

[5] = test system: rats with oxaliplatin-induced cold sensitivity; test: Cold plate test in oxaliplatin model; type: in vivo, rat; settings: oxaliplatin 2.4 mg/kg i.p.
Protocol: as §1
The animals were placed in a stainless box (12 cm×20 cm×10 cm) with a cold plate as floor. The temperature of the cold plate was kept constant at 4° C.±1° C. Pain-related behaviors (i.e. lifting and licking of the hind paw) were observed and the time (s) of the first sign was recorded. The cut-off time of the latency of paw lifting or licking was set at 60 s (Di Cesare Mannelli et al. Exp Neurol 261:22-33, 2014).

[6] = test system: NMDA-plus-glycine-triggered release of [3H]-D-aspartate in synaptosomal preparations of the hippocampus; settings: hippocampus synaptosomes; read-out: IC50 for inhibiting NMDA-plus-glycine-triggered release of [3H]-D-aspartate; cited from earlier work
[7] = test system: NMDA-plus-glycine-triggered [3H]-D-aspartate release in synaptosomal preparations of the spinal cord; settings: spinal cord synaptosomes; read-out: IC50 for inhibiting NMDA-plus-glycine-triggered [3H]-D-aspartate release; cited from earlier work
[8] = test system: rats pre-treated with 2′,3′-dideoxycytidine (ddC, zalcitabine); settings: cited from earlier work
[9] = Rat plasma concentration-time profiles after oral administration; type: in vivo; settings: for rat plasma concentration-time profiles after oral administration: 75 mg/kg p.o. enantiomer vs 150 mg/kg p.o. racemate (FIG. 4A, 4B); for interconversion of enantiomers in vivo: rat, oral administration
Protocol: FIG. 4A: Comparison of the plasma concentration-time profiles of the (R)-enantiomer after oral administration of (R)-dimiracetam (75 mg/kg) and after oral administration of racemic dimiracetam (150 mg/kg)
FIG. 4B: Comparison of the plasma concentration-time profiles of the (S)-enantiomer after oral administration of (S)-dimiracetam (2) (75 mg/kg) and after oral administration of racemic dimiracetam (150 mg/kg).

- IC50 [1]: 14.6 nM and 15 nM
SMILES: O=C1CN2C(=O)CCC2N1 (racemic) [racemic dimiracetam, (RS)-3,6,7,7a-tetrahydro-1H-pyrrolo[1,5-a]imidazole-2,5-dione]
- Percent inhibition of NMDA + glycine-induced glutamate release from rat spinal synaptosomes ([1]; 0.1 nM): 9 ± 13%
- Percent inhibition of NMDA + glycine-induced glutamate release from rat spinal synaptosomes ([1]; 1 nM): 29 ± 3%
- Percent inhibition of NMDA + glycine-induced glutamate release from rat spinal synaptosomes ([1]; 10 nM): 35 ± 4%
- inhibition of NMDA plus glycine-evoked [3H]-D-aspartic acid release ([1]; at a concentration of 10 nM): 36%
- % inhibition (mean) [2]: 35.4%
- Randall & Selitto, paw pressure, Day 28 ([3]; 15 mg/kg b.i.d.): 48.7 ± 2.5 g
- Randall & Selitto, paw pressure, Pre-test ([3]; 15 mg/kg b.i.d.): 68.1 ± 1.2 g
- Randall & Selitto, paw pressure, Day 28 ([3]; 50 mg/kg b.i.d.): 55.2 ± 1.0 g
- Randall & Selitto, paw pressure, Pre-test ([3]; 50 mg/kg b.i.d.): 67.1 ± 0.8 g
- Von Frey paw withdrawal, Day 28 ([4]; 15 mg/kg b.i.d.): 16.0 ± 1.5 g
- Von Frey paw withdrawal, Pre-test ([4]; 15 mg/kg b.i.d.): 21.4 ± 1.0 g
- Von Frey paw withdrawal, Day 28 ([4]; 50 mg/kg b.i.d.): 18.5 ± 2.3 g
- Von Frey paw withdrawal, Pre-test ([4]; 50 mg/kg b.i.d.): 21.4 ± 0.5 g
- Cold plate, licking latency, Day 28 ([5]; 15 mg/kg b.i.d.): 14.8 ± 1.5 s
- Cold plate, licking latency, Pre-test ([5]; 15 mg/kg b.i.d.): 21.5 ± 1.0 s
- Cold plate, licking latency, Day 28 ([5]; 50 mg/kg b.i.d.): 15.4 ± 1.0 s
- Cold plate, licking latency, Pre-test ([5]; 50 mg/kg b.i.d.): 22.0 ± 0.8 s
- IC50 [6]: ~3000 nM
- IC50 [7]: ~20 nM
- efficacy response after a single oral dose [8]: superior response compared to either (R)- or (S)-dimiracetam alone

- IC50 [1]: 123 nM
- rat plasma concentration-time profiles after oral administration [9]: identical
- interconversion of enantiomers in vivo [9]: do not to interconvert in vivo
SMILES: O=C1CN2C(=O)CC[C@@H]2N1 [(R)-dimiracetam, (R)-3,6,7,7a-tetrahydro-1H-pyrrolo[1,5-a]imidazole-2,5-dione]
- efficacy response after a single oral dose [8]: partial efficacy response

- IC50 [1]: 418 nM
- rat plasma concentration-time profiles after oral administration [9]: identical
- interconversion of enantiomers in vivo [9]: do not to interconvert in vivo
SMILES: O=C1CN2C(=O)CC[C@H]2N1 [(S)-dimiracetam, (S)-3,6,7,7a-tetrahydro-1H-pyrrolo[1,5-a]imidazole-2,5-dione]
- efficacy response after a single oral dose [8]: smaller response than the corresponding dose of the (R)-enantiomer
